{
  "source": "patent US7371412B2",
  "about": "“Pharmaceutical compositions comprising an extract of Euphorbia prostrata” (priority 2004, dated 2008)",
  "key": {"[1]": {"test_system": "acetic acid-induced chemonociception", "assay": "Acetic acid-induced writhing", "format": "in vivo", "conditions": "mice; for antinociceptive effect in the writhing test: p.o."}, "[2]": {"test_system": "oedematous response to croton oil", "conditions": "Della Loggia et al., 1986; cited from earlier work"}, "[3]": {"test_system": "carrageenan-induced hemorrhoids", "assay": "Antihaemorrhoidal activity, anorectum:body weight ratio model", "format": "in vivo", "conditions": "rats, p.o.; for effect against carrageenan-induced hemorrhoids: chronic administration (7 days)", "protocol": "The antihaemorrhoidal activity of the Euphorbia prostrata extract was assessed and compared with reference drug, diosmin using anorectum:body weight ratio model in rats (modified method of Jia et al., 2000).\nFIG. 1: Effect of Euphorbia prostrata extract (E.p. extract) against carrageenan-induced hemorrhoids in rats.\nFIG. 2: Effect of individual component of Euphorbia prostrata extract (E.p. extract) against carrageenan-induced hemorrhoids in rats."}, "rat liver microsomes": {"test_system": "rat liver microsomes", "conditions": "CCl4 induced peroxidation; rat liver microsomes (Cholbi et al., 1991); cited from earlier work"}, "COX-2": {"test_system": "COX-2", "conditions": "lipopolysaccharide activated RAW 264.7 macrophages (Liang et al., 1999); cited from earlier work"}, "[4]": {"test_system": "iNOS (inducible nitric oxide synthase)", "conditions": "lipopolysaccharide activated RAW 264.7 macrophages (Liang et al., 1999); cited from earlier work"}, "histamine release": {"test_system": "histamine release", "conditions": "in vivo (Bhargava and Westfall, 1969); cited from earlier work"}, "murine macrophages": {"test_system": "murine macrophages", "conditions": "murine macrophages (Xagorari et al., 2001); cited from earlier work"}, "[5]": {"test_system": "carrageenan-induced hyperalgesia", "assay": "Carrageenan-induced hyperalgesia, paw pressure test", "format": "in vivo", "conditions": "rats; 2 mg/kg", "source_text": "FIG. 7: Effect of Euphorbia prostrata extract (E.p. extract) against carageenan-induced hyperalgesia in rats."}, "[6]": {"assay": "In vitro superoxide radical scavenging activity", "format": "biochemical", "conditions": "25 μg", "source_text": "FIG. 9: In vitro superoxide radical scavenging activity of Euphorbia prostrata extract (E.p. extract)."}},
  "data": [
    {"compound": "O=c1cc(-c2ccc(O)cc2)oc2cc(O[C@@H]3O[C@H](CO)[C@@H](O)[C@H](O)[C@H]3O)cc(O)c12", "note": "[apigenin-7-glucoside]", "values": [
      {"measurement": "antinociceptive effect in the writhing test", "setting": "[1]; 0.5, 1.0, and 2.0 mg/kg", "value": "dose-dependent antinociceptive effect"},
      {"measurement": "oedematous response to croton oil", "setting": "[2]", "value": "dose dependent inhibition"},
      {"measurement": "effect against carrageenan-induced hemorrhoids", "setting": "[3]; 0.478 mg/kg", "value": "showed effect"}
    ]},
    {"compound": "O=c1cc(-c2ccc(O)cc2)oc2cc(O)cc(O)c12", "note": "[apigenin]", "values": [
      {"measurement": "antiperoxidative activity", "setting": "rat liver microsomes", "value": "significant antiperoxidative activity"},
      {"measurement": "inhibition of transcriptional activation of COX-2", "setting": "COX-2", "value": "most potent inhibitor"},
      {"measurement": "inhibition of transcriptional activation of iNOS", "setting": "[4]", "value": "most potent inhibitor"}
    ]},
    {"compound": "COc1ccc(-c2cc(=O)c3c(O)cc(O[C@@H]4O[C@H](CO[C@@H]5O[C@@H](C)[C@H](O)[C@@H](O)[C@H]5O)[C@@H](O)[C@H](O)[C@H]4O)cc3o2)cc1O", "note": "[diosmin, reference compound]", "values": [
      {"measurement": "anorectal body weight ratio", "setting": "[3]; 50 mg/kg, 7 days", "value": "significantly decreased"},
      {"measurement": "histopathological examination of the anorectum", "setting": "[3]; 50 mg/kg, 7 days", "value": "intact mucosal layer with prominent mucosal cells and mild leukocyte migration"}
    ]},
    {"compound": "O=c1oc2c(O)c(O)cc3c(=O)oc4c(O)c(O)cc1c4c23", "note": "[ellagic acid]", "values": [
      {"measurement": "histamine release mediated by histamine liberators (compound 48/80, dextran and polymyxin B sulfate)", "setting": "histamine release", "value": "suppress histamine release"},
      {"measurement": "effect against carrageenan-induced hemorrhoids", "setting": "[3]; 1.204 mg/kg", "value": "showed effect"}
    ]},
    {"compound": "O=C(O)c1cc(O)c(O)c(O)c1", "note": "[gallic acid]", "values": [
      {"measurement": "effect against carrageenan-induced hemorrhoids", "setting": "[3]; 1.123 mg/kg", "value": "showed effect"}
    ]},
    {"compound": "O=c1cc(-c2ccc(O)c(O)c2)oc2cc(O[C@@H]3O[C@H](CO)[C@H](O)[C@H](O)[C@H]3O)cc(O)c12", "note": "[luteolin-7-galactoside]", "values": [
      {"measurement": "oedematous response to croton oil", "setting": "[2]", "value": "dose dependent inhibition"}
    ]},
    {"compound": "O=c1cc(-c2ccc(O)c(O)c2)oc2cc(O[C@@H]3O[C@H](CO)[C@@H](O)[C@H](O)[C@H]3O)cc(O)c12", "note": "[luteolin-7-glucoside]", "values": [
      {"measurement": "antinociceptive effect in the writhing test", "setting": "[1]; 0.25, 0.5, and 1.0 mg/kg", "value": "dose-dependent antinociceptive effect"}
    ]},
    {"compound": "O=c1cc(-c2ccc(O)c(O)c2)oc2cc(O)cc(O)c12", "note": "[luteolin]", "values": [
      {"measurement": "antiperoxidative activity", "setting": "rat liver microsomes", "value": "significant antiperoxidative activity"},
      {"measurement": "protein tyrosin phosphorylation, nuclear factor-κB mediated gene expression and pro-inflammatory cytokine production", "setting": "murine macrophages", "value": "inhibits"}
    ]},
    {"compound": "CS(=O)(=O)Nc1ccc([N+](=O)[O-])cc1Oc1ccccc1", "note": "[nimesulide, reference compound]", "values": [
      {"measurement": "pain threshold", "setting": "[1]; 2 mg/kg", "value": "significantly increased"},
      {"measurement": "paw withdrawal latencies", "setting": "[5]", "value": "increased"}
    ]},
    {"compound": "tocopherol", "values": [
      {"measurement": "superoxide radical scavenging activity", "setting": "[6]", "value": 25.54, "unit": "%"}
    ]}
  ]
}
